Source: article PMC6513986, “Molecular basis for heat desensitization of TRPV1 ion channels” (Nature Communications, 2019)
Ends that are not written are not given here.

Experiments:
TRPV1 = conditions: cited from earlier work
Text: To further corroborate our findings in FRET experiments of heat-desensitized channels, we took an alternative experimental strategy where we measured the changes in FRET induced by centipede toxin RhTx. […] Thus, we believe that the prolonged application of RhTx mimicked the effect ... || Based on the site-specific structural dynamics information, we computationally modeled the three-dimensional structure of mV1 in the Dh state. The blue shift in ANAP emission indicated a transition into a more hydrophobic environment at the 630 site, which provided an experimentally derived constraint for structural modeling using a recently published approach. As the heat-activated state of TRPV1 channels has not been resolved, we employed the double-knot toxin-bound state determined by cryo-EM (PDB ID: 3J5Q)[20] as the open state model, because a previous study had shown that Redhead tox ... || To model the heat-induced desensitized state of TRPV1, membrane-symmetry-loop modeling was performed using the Rosetta molecular modeling suite[41] version 2015.25. […] The selectivity filter, the pre S6 linker, and the S1–S2 linker were modeled de novo with the kinematic (KIC) loop modeling protocol[42],[43]. Ten th ... || (+ 1 further places)

mV1 = biological target: T1, mV1 (Mus musculus, UniProt Q704Y3); test: Inhibition of Dh of mV1 by C-terminal peptides or co-expressed C terminus, whole-cell; format: cell-based; set-up: Tau values: unit not given here; conditions: for Id/Imax / Tau values: Supplementary figure 1e
T1 construct: expressed in transfected cells; host or cells: HEK293T
Text: To generate the mC plasmid, the pEGFP-N1 vector enzyme cutting sites by HindIII and EcoRI were made by QuickCut Hind III and QuickCut EcoR I. The primer pair (5′- […]-3′ and 5′- […]-3′) for mouse TRPV1 was generated. pEGFP-N1 enzyme digestion vector and mouse TRPV1 PCR fragment were used for homologous recombination.
The pC plasmid was generated by the primer pair (5′-[…]-3′ and 5′-[…]-3′) and the homologous recombination between the pEGFP-N1 enzyme digestion vector and platypus TRPV1 PCR fragment were used.
The C-terminal peptides were synthesized[26] as the following sequences:
Random peptide: […]
(§1) All recordings were performed at room temperature.
(§2) Temperature control was achieved by perfusion of preheated or precooled solutions. Solutions were heated with an SHM-828 eight-line heater controlled by a CL-100 temperature controller (Harvard Apparatus). A custom-made manifold was attached to the output ports of the heater to deliver solutions to the recording chamber and provide heat insulation. Solutions were cooled by embedding the solution reservoirs in ice water and then perfused through a separate line. The patch pipette was placed about 1 mm from the solution output ports. A TA-29 miniature bead thermistor (Harvard Apparatus) was placed right next to the pipette, to ensure accurate monitoring of local temperature. The thermistor’s temperature readout was fed into an analog input of the patch amplifier and recorded simultaneously with current. With this method, we achieved rapid and reliable temperature changes.

[1] = biological target: T2, N-terminal region of mV1 (mN region, 1M-433R) (Mus musculus, UniProt Q704Y3); test: SPR, N-terminal region of mV1 immobilized; format: binding; conditions: 47.6 to 95.2 μM, 15 °C
T2 construct: N-terminal region of mV1 (mN region, 1M-433R)
Experimental: Note that the desensitization of mV1 occurs before cooling starts. Amplitude ratio (n = 7, two-sided t-test: *p < 0.01) between desensitized currents (Id) and maximum currents (Imax) induced by heat at 45 °C (right panel). c Superimposed representative temperature–response relationships of heat-evoked currents in HEK293T cells transiently transfected with pV1 and mV1. d Chimeric channels were generated between mV1 (gray) and pV1 (yellow) on the basis of the location of transmembrane domains. […] Channel plasmid was co-expressed with C-terminal region of pV1 (pC, 701N-851E) or mV1 (mC, 688N-839K). g Example current induced by a temperature ramp recorded from whole-cell patches with 1 mM mV1 C-terminal peptide (mC peptide) or random peptide in the pipette solution. h The mC peptide was perfused over an SPR sensor coated with the N-terminal region of mV1 (mN region, 1M-433R) at 15 or 35 °C (left and middle panels). The mC peptide in 95.2 μM was perfused over an SPR sensor coated with mN region at 15, 30, 33, and 35 °C (right panel). i Significant concentration and temperaturedependence of the interaction between N and C termini (n = 6, two-sided t-test: *p < 0.01). All statistical data are given as mean ± SEM. Source data are provided as a Source data file […]

mV1, pV1 and mutants = test: Heat-induced desensitization (Dh): Id/Imax and tau, patch clamp; format: cell-based, mouse; platypus; conditions: Figure 2g
Experimental: as §1, §2

[2] = biological target: T3, N-terminal region of mV1 (mN region, 1M-433R) (mouse, UniProt Q704Y3 1-433); test: SPR; mN region (1M-433R) immobilised on the sensor chip, mC peptide (30 aa) perfused at 47.6 and 95.2 uM; 35 °C ('high temperature'); conditions: both partners purified
T3 construct: mouse TRPV1 (mV1), N-terminal region, residues 1M-433R; In the functional rows the N terminus stood within the whole mV1 channel in HEK293T cells; also called N-terminal peptides; N terminus of mV1

[3] = biological target: T3, N-terminal region of mV1 (mN region, …); test: SPR; mN region (1M-433R) immobilised on the sensor chip, mC peptide (30 aa) perfused at 47.6 and 95.2 uM; 15 °C ('low temperature'); conditions: both partners purified
[4] = Id/Imax_Average of 6 replicates, SD and SEM in columns of their own
[5] = Tau values_Average of 6 replicates, SD and SEM in columns of their own

In the case of C=C(C)[C@]12C[C@@H](C)[C@@]34O[C@](Cc5ccccc5)(O[C@@H]1[C@@H]3C=C(COC(=O)Cc1ccc(O)c(OC)c1)C[C@]1(O)C(=O)C(C)=C[C@@H]41)O2 [RTX], the “activation through heat activation pathway” value (TRPV1) is listed as “activated the channel through heat activation pathway”.

In the case of “GSLKPEDAEVFKDSMAPGEK [Pep_20, C-terminal peptide]”, the Id/Imax (mV1; [4]) is reported as 0.596, the Tau values (mV1; [5]) is reported as 29.8 and the Id/Imax (mV1; replicate 1) is reported as 0.486. For the same molecule, the Tau values (mV1; replicate 1) was 23.5, the Id/Imax (mV1; replicate 2) was 0.667 and the Tau values (mV1; replicate 2) was 38.3. It also gave an Id/Imax (mV1; replicate 3) of 0.715, a Tau values (mV1; replicate 3) of 20.7 and an Id/Imax (mV1; replicate 4) of 0.612. The Tau values (mV1; replicate 4) was 24.4, the Id/Imax (mV1; replicate 5) was 0.567 and the Tau values (mV1; replicate 5) was 39.6. It also gave an Id/Imax (mV1; replicate 6) of 0.529 and a Tau values (mV1; replicate 6) of 32.3.

“LKHYTGSLKPEDAEVFKDSMAPGEK [Pep_25, C-terminal peptide]” showed an Id/Imax (mV1; [4]) of 0.403, a Tau values (mV1; [5]) of 59.5 and an Id/Imax (mV1; replicate 1) of 0.318. For the same molecule, the Tau values (mV1; replicate 1) was 43.8, the Id/Imax (mV1; replicate 2) was 0.509 and the Tau values (mV1; replicate 2) was 73. It also gave an Id/Imax (mV1; replicate 3) of 0.427, a Tau values (mV1; replicate 3) of 60.4 and an Id/Imax (mV1; replicate 4) of 0.384. It also gave a Tau values (mV1; replicate 4) of 48.3, an Id/Imax (mV1; replicate 5) of 0.367 and a Tau values (mV1; replicate 5) of 52. The Id/Imax (mV1; replicate 6) was 0.413 and the Tau values (mV1; replicate 6) was 79.5.

For “PEEVQLKHYTGSLKPEDAEVFKDSMAPGEK [mC peptide]”, the “increase in SPR response” value [1] was 162%.

With “QVEEPTYHKLPKLSGVEADEMSDKFKEGPM [Random peptide]” the “inhibition of Dh of mV1” value (mV1; 1 mM peptide in pipette solution, whole-cell) was “failed to inhibit Dh”.

B1: mV1 (protein, UniProt Q704Y3 1-839, looked up)
Transient receptor potential …: MEKWASLDSDESEPPAQENSCPDPPDRDPNSKPPPAKPHIFATRSRTRLFGKGDSEEASPMDCPYEEGGLASCPIITVSSVVTLQRSVDGPTCLRQTSQDSVSTGVETPPRLYDRRSIFDAVAQSNCQELESLLSFLQKSKKRLTDSEFKDPETGKTCLLKAMLNLHNGQNDTIALLLDIARKTDSLKQFVNASYTDSYYKGQTALHIAIERRNMALVTLLVENGADVQAAANGDFFKKTKGRPGFYFGELPLSLAACTNQLAIVKFLLQNSWQPADISARDSVGNTVLHALVEVADNTADNTKFVTNMYNEILILGAKLHPTLKLEELTNKKGLTPLALAASSGKIGVLAYILQREIHEPECRHLSRKFTEWAYGPVHSSLYDLSCIDTCEKNSVLEVIAYSSSETPNRHDMLLVEPLNRLLQDKWDRFVKRIFYFNFFVYCLYMIIFTTAAYYRPVEGLPPYKLNNTVGDYFRVTGEILSVSGGVYFFFRGIQYFLQRRPSLKSLFVDSYSEILFFVQSLFMLVSVVLYFSHRKEYVASMVFSLAMGWTNMLYYTRGFQQMGIYAVMIEKMILRDLCRFMFVYLVFLFGFSTAVVTLIEDGKNNSLPVESPPHKCRGSACRPGNSYNSLYSTCLELFKFTIGMGDLEFTENYDFKAVFIILLLAYVILTYILLLNMLIALMGETVNKIAQESKNIWKLQRAITILDTEKSFLKCMRKAFRSGKLLQVGFTPDGKDDFRWCFRVDEVNWTTWNTNVGIINEDPGNCEGVKRTLSFSLRSGRVSGRNWKNFALVPLLRDASTRDRHSTQPEEVQLKHYTGSLKPEDAEVFKDSMAPGEK
With B1 the Id/Imax_Average (mV1, pV1 and mutants; mean of replicates) was 0.993, the Id/Imax (mV1, pV1 and mutants; replicate 1) was 0.9971 and the Id/Imax (mV1, pV1 and mutants; replicate 2) was 0.9951. For the same molecule, the Id/Imax (mV1, pV1 and mutants; replicate 3) was 0.999, the Id/Imax (mV1, pV1 and mutants; replicate 4) was 0.9588 and the Id/Imax (mV1, pV1 and mutants; replicate 5) was 0.9972. The Id/Imax (mV1, pV1 and mutants; replicate 6) was 0.9943, the Id/Imax (mV1, pV1 and mutants; replicate 7) was 0.9968 and the Id/Imax (mV1, pV1 and mutants; replicate 8) was 0.9956. The Id/Imax (mV1, pV1 and mutants; replicate 9) was 0.9982 and the Id/Imax (mV1, pV1 and mutants; replicate 10) was 0.9979.

B2: C terminus of mV1: C-terminal region of mV1 (mC, 688N-839K), co-expressed plasmid (protein)
chain: NKIAQESKNIWKLQRAITILDTEKSFLKCMRKAFRSGKLLQVGFTPDGKDDFRWCFRVDEVNWTTWNTNVGIINEDPGNCEGVKRTLSFSLRSGRVSGRNWKNFALVPLLRDASTRDRHSTQPEEVQLKHYTGSLKPEDAEVFKDSMAPGEK
modifications: left off: eGFP (from the vector pEGFP-N1), end not stated, state not stated
notes: C-terminal region of mV1 (mC, 688N-839K), co-expressed plasmid
In the case of B2, the “inhibition of Dh of mV1” value (mV1; co-expression with C-terminal region) is reported as “largely inhibited”.

B3: DkTx: peptide toxin, double-knot toxin (peptide, UniProt P0CH43 1-79, looked up)
Tau-theraphotoxin-Hs1a: DCAKEGEVCSWGKKCCDLDNFYCPMEFIPHCKKYKPYVPVTTNCAKEGEVCGWGSKCCHGLDCPLAFIPYCEKYRGRND
For B3, the “activation through heat activation pathway” value (TRPV1) is given as “activated the channel through heat activation pathway” and the “mimicry of heat activation” value (TRPV1) is given as “mimic heat activation of TRPV1”.

B4: mV1 C-terminal peptide (Pep_30) (peptide)
peptide: PEEVQLKHYTGSLKPEDAEVFKDSMAPGEK
notes: last 30 residues of mouse TRPV1 (mV1); The text ties the SPR and the pipette experiment to 'a 30-amino-acid' C-terminal peptide; Pep_30 is the only printed peptide of that length from mV1; also called mC peptide; C-terminal peptides (a 30-amino-acid molecule); source: synthetic peptide
B4 gave a Kd [2] of 3 nM and a Kd [3] of 140 nM.
